Assay results published in patent publication US9938260B2, “Soluble guanylate cyclase activators and their use” (GlaxoSmithKline Intellectual Property Development Limited, priority 2014, dated 2018).
Where a name gives a salt, the structure may show the parent alone.

biological target: T1, soluble guanylate cyclase (sGC) (Rattus norvegicus, UniProt P20595); experiment: Biological cellular assay: sGC activity by phosphorylation of VASP in rat aortic smooth muscle cells; assay type: cell-based; settings: primary rat aortic smooth muscle cells, pre-incubated with 10 μM ODQ, 30 min at 37° C., phospho-VASP (pSer239) fluorescent signal; read-out: Cell assay pEC50 (converted)
T1 construct: endogenous in cells; host or cells: primary rat aortic smooth muscle cells
T1 sequence (P20595 1-619): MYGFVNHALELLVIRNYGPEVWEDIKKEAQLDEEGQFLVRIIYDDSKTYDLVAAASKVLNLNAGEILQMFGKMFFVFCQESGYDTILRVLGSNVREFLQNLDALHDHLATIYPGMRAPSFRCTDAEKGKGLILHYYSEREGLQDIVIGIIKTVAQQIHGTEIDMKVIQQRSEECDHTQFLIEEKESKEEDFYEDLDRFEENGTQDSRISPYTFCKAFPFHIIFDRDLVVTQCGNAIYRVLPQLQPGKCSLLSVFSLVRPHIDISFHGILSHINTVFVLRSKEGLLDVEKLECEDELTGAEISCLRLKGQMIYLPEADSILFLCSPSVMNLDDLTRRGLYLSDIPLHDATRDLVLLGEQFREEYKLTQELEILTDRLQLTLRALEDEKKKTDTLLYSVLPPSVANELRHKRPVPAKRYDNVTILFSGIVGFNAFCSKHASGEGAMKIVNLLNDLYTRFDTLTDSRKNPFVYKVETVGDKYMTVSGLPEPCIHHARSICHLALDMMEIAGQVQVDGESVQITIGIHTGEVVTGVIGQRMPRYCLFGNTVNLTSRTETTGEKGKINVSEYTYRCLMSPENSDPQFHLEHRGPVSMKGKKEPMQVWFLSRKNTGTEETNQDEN
T1 sequence (P19686 1-690 partner): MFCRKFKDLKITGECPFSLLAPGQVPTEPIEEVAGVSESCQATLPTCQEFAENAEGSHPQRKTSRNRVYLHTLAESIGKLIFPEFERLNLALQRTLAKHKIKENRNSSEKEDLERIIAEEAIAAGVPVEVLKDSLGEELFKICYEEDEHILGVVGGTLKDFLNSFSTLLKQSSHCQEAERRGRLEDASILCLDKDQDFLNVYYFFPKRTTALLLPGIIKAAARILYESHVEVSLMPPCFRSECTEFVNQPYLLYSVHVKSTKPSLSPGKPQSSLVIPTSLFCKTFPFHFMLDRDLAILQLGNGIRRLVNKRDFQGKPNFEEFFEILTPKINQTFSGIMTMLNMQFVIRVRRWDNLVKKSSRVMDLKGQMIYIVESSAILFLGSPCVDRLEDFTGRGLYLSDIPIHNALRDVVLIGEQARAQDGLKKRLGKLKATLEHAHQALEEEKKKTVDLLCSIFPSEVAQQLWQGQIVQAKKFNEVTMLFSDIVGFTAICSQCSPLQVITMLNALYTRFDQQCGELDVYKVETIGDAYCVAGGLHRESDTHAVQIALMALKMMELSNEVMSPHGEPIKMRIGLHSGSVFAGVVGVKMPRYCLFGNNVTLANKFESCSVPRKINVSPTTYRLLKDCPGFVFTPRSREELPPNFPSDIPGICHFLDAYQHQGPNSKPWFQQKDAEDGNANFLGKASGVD
Procedure: The activity of soluble guanylate cyclase (sGC) was tested in an assay based on measuring phosphorylation of the protein kinase G (PKG) substrate vasodilator-stimulated phosphoprotein (VASP) in rat aortic smooth muscle cells. […] Dimethylsulfoxide (DMSO) vehicle and varying concentrations of the compound to be tested were then added. Following a 30 min incubation at 37° C., media was aspirated and the cells were rinsed with phosphate-buffered saline (PBS) and fixed with 4% formaldehyde in PBS by incubating at room temperature for 20 min. Cells were then washed with PBS and permeabilized for 10 min using 0.1% triton X-100 in PBS. Following PBS rinsing, the cells were blocked for 90 min at room temperature with blocking buffer. The buffer was aspirated and the cells were treated overnight at 4° C. with primary antibody (pSer239-VASP, rabbit polyclonal Ab) diluted 1:500 in blocking buffer. Following three washes with 0.05% Tween 20, the cells were treated for 1 h at room temperature with a fluorescent labeled secondary antibody (IRDye® 800CW Donkey Anti-Rabbit IgG) diluted 1:2500 in blocking buffer with 0.05% Tween 20. Following two washes with PBS, infrared fluorescence was measured using an Odyssey Infrared Imaging System. The activity of a test compound was determined as the pEC50 value which is the concentration able to increase by 50% (vs. Bmax) the phospho-VASP fluorescent signal. Front. Pharmacol., 5 Jul. 2012|doi: 10.3389/fphar.2012.00128, Volume 3 July, 2012, Article number 128.

| EC50 [nM] | Structure (SMILES) |
| --- | --- |
| 0.631 | CCOC(=O)C1CCN(c2cccc(-c3cc(F)cc(F)c3OCc3ccc(C4CCN(CC#N)CC4)cc3C)n2)CC1 [Example 1, ethyl 1-(6-(2-((4-(1-(cyanomethyl)piperidin-4-yl)-2-methylbenzyl)oxy)-3,5-difluorophenyl)pyridin-2-yl)piperidine-4-carboxylate] |
| 0.501 | Cc1cc(C2CCN(CC(F)(F)F)CC2)ccc1COc1c(F)cc(F)cc1-c1cccc(N2CCC(C(=O)O)CC2)n1 [Example 5, 1-(6-(3,5-difluoro-2-((2-methyl-4-(1-(2,2,2-trifluoroethyl)piperidin-4-yl)benzyl)oxy)phenyl)pyridin-2yl)piperidine-4-carboxylic acid] |
| 0.1 | Cc1cc(C2CCN(C(=O)C3COC3)CC2)ccc1COc1c(F)cc(F)cc1-c1cccc(N2CCC(C(=O)O)CC2)n1 [Example 6, 1-(6-(3,5-difluoro-2-((2-methyl-4-(1-(oxetane-3-carbonyl)piperidin-4-yl)benzyl)oxy)phenyl)pyridin-2yl)piperidine-4-carboxylic acid] |
| 10 | Cc1cc(C2CCN(CC(F)(F)F)CC2)ncc1COc1c(F)cc(F)cc1-c1cccc(N2CCC(C(=O)O)CC2)n1 [Example 9, 1-(6-(3,5-difluoro-2-((4-methyl-6-(1-(2,2,2-trifluoroethyl)piperidin-4-yl)pyridin-3-yl)methoxy)phenyl)pyridin-2-yl)piperidine-4-carboxylic acid, sodium salt] |
| 10 | Cc1nc(C2CCN(CC(F)(F)F)CC2)ccc1COc1c(F)cc(F)cc1-c1cccc(N2CCC(C(=O)O)CC2)n1 [Example 14, 1-(6-(3,5-difluoro-2-((2-methyl-6-(1-(2,2,2-trifluoroethyl)piperidin-4-yl)pyridin-3-yl)methoxy)phenyl)pyridin-2-yl)piperidine-4-carboxylic acid] |
| 79.4 | Cc1nc(C2CCN(C3COC3)CC2)ccc1COc1c(F)cc(F)cc1-c1cccc(N2CCC(C(=O)O)CC2)n1 [Example 17, 1-(6-(3,5-difluoro-2-((2-methyl-6-(1-(oxetan-3-yl)piperidin-4-yl)pyridin-3-yl)methoxy)phenyl)pyridin-2-yl)piperidine-4-carboxylic acid] |
| 158 | Cc1nc(C2CCN(C3CCOC3)CC2)ccc1COc1c(F)cc(F)cc1-c1cccc(N2CCC(C(=O)O)CC2)n1 (stereo not shown) [Example 20, 1-(6-(3,5-difluoro-2-((2-methyl-6-(1-(tetrahydrofuran-3-yl)piperidin-4-yl)pyridin-3-yl)methoxy)phenyl)pyridin-2-yl)piperidine-4-carboxylic acid] |
| 251 | Cc1nc(C2CCN(CC3CCOC3)CC2)ccc1COc1c(F)cc(F)cc1-c1cccc(N2CCC(C(=O)O)CC2)n1 (stereo not shown) [Example 23, 1-(6-(3,5-difluoro-2-((2-methyl-6-(1-((tetrahydrofuran-3-yl)methyl)piperidin-4-yl)pyridin-3-yl)methoxy)phenyl)pyridin-2-yl)piperidine-4-carboxylic acid] |
| 39.8 | Cc1nc(C2CCN(CC#N)CC2)ccc1COc1c(F)cc(F)cc1-c1cccc(N2CCC(C(=O)O)CC2)n1 [Example 27, 1-(6-(2-((6-(1-(cyanomethyl)piperidin-4-yl)-2-methylpyridin-3-yl)methoxy)-3,5-difluorophenyl)pyridin-2-yl)piperidine-4-carboxylic acid, Sodium salt] |
| 20 | Cc1nc(C2CCN(C(=O)C3COC3)CC2)ccc1COc1c(F)cc(F)cc1-c1cccc(N2CCC(C(=O)O)CC2)n1 [Example 30, 1-(6-(3,5-difluoro-2-((2-methyl-6-(1-(oxetane-3-carbonyl)piperidin-4-yl)pyridin-3-yl)methoxy)phenyl)pyridin-2-yl)piperidine-4-carboxylic acid, Sodium salt,] |
| 15.8 | Cc1nc(C2CCN(C(=O)CO)CC2)ccc1COc1c(F)cc(F)cc1-c1cccc(N2CCC(C(=O)O)CC2)n1 [Example 33, 1-(6-(3,5-difluoro-2-((6-(1-(2-hydroxyacetyl)piperidin-4-yl)-2-methylpyridin-3-yl)methoxy)phenyl)pyridin-2-yl)piperidine-4-carboxylic acid, Sodium salt] |
| 10 | Cc1cc(C2CCN(C3COC3)CC2)ccc1COc1c(Cl)cccc1-c1cccc(N2CCC(C(=O)O)CC2)n1 [Example 36, 1-(6-(3-chloro-2-((2-methyl-4-(1-(oxetan-3-yl)piperidin-4-yl)benzyl)oxy)phenyl)pyridin-2-yl)piperidine-4-carboxylic acid, Sodium salt] |
| 0.794 | Cc1cc(C2CCN(C3COC3)CC2)ccc1COc1c(F)cc(F)cc1-c1cccc(N2CCC(C(=O)O)CC2)n1 [Example 39, 1-(6-(3,5-difluoro-2-((2-methyl-4-(1-(oxetan-3-yl)piperidin-4-yl)benzyl)oxy)phenyl)pyridin-2-yl)piperidine-4-carboxylic acid, Sodium salt] |
| 2.51 | Cc1cc(C2CCN(C3CCOC3)CC2)ccc1COc1c(F)cc(F)cc1-c1cccc(N2CCC(C(=O)O)CC2)n1 (stereo not shown) [Example 42, 1-(6-(3,5-difluoro-2-((2-methyl-4-(1-(tetrahydrofuran-3-yl)piperidin-4-yl)benzyl)oxy)phenyl)pyridin-2-yl)piperidine-4-carboxylic acid, Sodium salt] |
| 3.16 | Cc1cc(C2CCN(C3CC3)CC2)ccc1COc1c(F)cc(F)cc1-c1cccc(N2CCC(C(=O)O)CC2)n1 [Example 45, 1-(6-(2-((4-(1-cyclopropylpiperidin-4-yl)-2-methylbenzyl)oxy)-3,5-difluorophenyl)pyridin-2-yl)piperidine-4-carboxylic acid, Sodium salt] |
| 15.8 | COCCN1CCC(c2ccc(COc3c(F)cc(F)cc3-c3cccc(N4CCC(C(=O)O)CC4)n3)c(C)c2)CC1 [Example 48, 1-(6-(3,5-difluoro-2-((4-(1-(2-methoxyethyl)piperidin-4-yl)-2-methylbenzyl)oxy)phenyl)pyridin-2-yl)piperidine-4-carboxylic acid, Sodium salt] |
| 31.6 | Cc1cc(C2CCN(CCO)CC2)ccc1COc1c(F)cc(F)cc1-c1cccc(N2CCC(C(=O)O)CC2)n1 [Example 51, 1-(6-(3,5-difluoro-2-((4-(1-(2-hydroxyethyl)piperidin-4-yl)-2-methylbenzyl)oxy)phenyl)pyridin-2-yl)piperidine-4-carboxylic acid, Sodium salt] |
| 2.51 | Cc1cc(C2CCN(CCC(F)(F)F)CC2)ccc1COc1c(F)cc(F)cc1-c1cccc(N2CCC(C(=O)O)CC2)n1 [Example 54, 1-(6-(3,5-difluoro-2-((2-methyl-4-(1-(3,3,3-trifluoropropyl)piperidin-4-yl)benzyl)oxy)phenyl)pyridin-2-yl)piperidine-4-carboxylic acid, Sodium salt] |
| 0.0794 | Cc1cc(C2CCN(C(=O)CO)CC2)ccc1COc1c(F)cc(F)cc1-c1cccc(N2CCC(C(=O)O)CC2)n1 [Example 57, 1-(6-(3,5-difluoro-2-((4-(1-(2-hydroxyacetyl)piperidin-4-yl)-2-methylbenzyl)oxy)phenyl)pyridin-2-yl)piperidine-4-carboxylic acid, Sodium salt] |
